Data: patent publication US8758816B2, “Compositions comprising azelastine and methods of use thereof” (priority 2004, dated 2014)
Values joined by “and” are separate entries in the source; they are usually repeats but may differ in a detail not shown here. Identical values can stand only once. Counter-ions that a name gives are not always drawn.

Legend:
[1] = system: patients with seasonal allergic rhinitis (SAR); assay: MP 428 study: adverse events, Safety Population; assay type: in vivo, human
Procedure: A two-week, randomized, double-blind study, which evaluated the effects of the co-administration of ASTELIN® (azelastine hydrochloride (HCl)) and FLONASE® (fluticasone propionate) compared to either product alone in patients with seasonal allergic rhinitis (SAR) was conducted during the 2006 Texas mountain cedar season. After a 5-day placebo lead-in period, 151 patients with moderate-to-severe allergic rhinitis symptoms were randomized to either: (1) (49 total patients) ASTELIN® (azelastine hydrochloride (HCl)) plus placebo saline nasal spray 2 sprays per nostril, 15 minutes apart, twice daily (AM & PM); (2) (50 total patients) FLONASE® (fluticasone propionate) plus placebo saline nasal spray, 2 sprays per nostril, 15 minutes apart, once daily (AM) and two sessions of placebo saline nasal spray, 2 sprays per nostril, 15 minutes apart (PM); or (3) (52 total patients) the co-administration of ASTELIN® (azelastine hydrochloride (HCl)) 2 sprays per nostril plus FLONASE® (fluticasone propionate) 2 sprays per nostril (AM), 15 minutes apart, and ASTELIN® (azelastine hydrochloride (HCl)) 2 sprays per nostril plus placebo saline nasal spray, 15 minutes apart, (PM) for a 2-week double-blind treatment period.
The most common adverse events (AEs) were bitter taste (8.2% in ASTELIN® (azelastine hydrochloride (HCl)) group, 2.0% in FLONASE® (fluticasone propionate) group, 13.5% in co-administration group) and headache (4.1% in ASTELIN® (azelastine hydrochloride (HCl)) group, 4.0% in FLONASE® (fluticasone propionate) group, 5.8% in co-administration group). No other AE was reported by more than one patient in any treatment group. There were no discontinuations due to AEs.

[2] = system: patients with seasonal allergic rhinitis (SAR); assay: MP 428 study: Adult Rhinoconjunctivitis Quality of Life Questionnaire outcomes, change from baseline; assay type: in vivo, human; settings: Day 14/ET; Intent-to-Treat Population

CN1CCCC(n2nc(Cc3ccc(Cl)cc3)c3ccccc3c2=O)CC1 (racemic) [Azelastine, (±)-1-(2H)-phthalazinone, 4-[(4-chlorophenyl)methyl]-2-(hexahydro-1-methyl-1H-azepin-4-yl)-, mono-hydrochloride]
Treatment-Emergent AE: NASAL DISCOMFORT ([1]; max severity Mild): 0 (0.0) No. of Patients (%)
Treatment-Emergent AE: NECK PAIN ([1]; max severity Mild): 1 (2.0) No. of Patients (%)
Treatment-Emergent AE: NERVOUS SYSTEM DISORDERS, Any Preferred Term ([1]; max severity Mild): 1 (2.0) No. of Patients (%)
Treatment-Emergent AE: PHARYNGOLARYNGEAL PAIN ([1]; max severity Mild): 0 (0.0) No. of Patients (%)
Treatment-Emergent AE: RESPIRATORY, THORACIC AND MEDIASTINAL DISORDERS, Any Preferred Term ([1]; max severity Mild): 0 (0.0) No. of Patients (%)
Treatment-Emergent AE: STOMACH DISCOMFORT ([1]; max severity Mild): 0 (0.0) No. of Patients (%)
Treatment-Emergent AE: Any Adverse Event ([1]; max severity Mild, mono-hydrochloride): 3 (6.1) No. of Patients (%) and 3 (0.1) No. of Patients (%)
Treatment-Emergent AE: Any Adverse Event ([1]; max severity Moderate): 2 (4.1) No. of Patients (%)
Treatment-Emergent AE: DRY MOUTH ([1]; max severity Moderate): 0 (0.0) No. of Patients (%)
Treatment-Emergent AE: DYSGEUSIA ([1]; max severity Moderate): 0 (0.0) No. of Patients (%)
Treatment-Emergent AE: EAR AND LABYRINTH DISORDERS, Any Preferred Term ([1]; max severity Moderate): 1 (2.0) No. of Patients (%)
Treatment-Emergent AE: EAR PAIN ([1]; max severity Moderate): 1 (2.0) No. of Patients (%)
Treatment-Emergent AE: EPISTAXIS ([1]; max severity Moderate): 0 (0.0) No. of Patients (%)
Treatment-Emergent AE: GASTROINTESTINAL DISORDERS, Any Preferred Term ([1]; max severity Moderate): 0 (0.0) No. of Patients (%)
Treatment-Emergent AE: HEADACHE ([1]; max severity Moderate): 1 (2.0) No. of Patients (%)
Treatment-Emergent AE: MUSCULOSKELETAL AND CONNECTIVE TISSUE DISORDERS, Any Preferred Term ([1]; max severity Moderate): 0 (0.0) No. of Patients (%)
Treatment-Emergent AE: MYALGIA ([1]; max severity Moderate): 0 (0.0) No. of Patients (%)
Treatment-Emergent AE: NASAL DISCOMFORT ([1]; max severity Moderate): 0 (0.0) No. of Patients (%)
Treatment-Emergent AE: NECK PAIN ([1]; max severity Moderate): 0 (0.0) No. of Patients (%)
Treatment-Emergent AE: NERVOUS SYSTEM DISORDERS, Any Preferred Term ([1]; max severity Moderate): 1 (2.0) No. of Patients (%)
Treatment-Emergent AE: PHARYNGOLARYNGEAL PAIN ([1]; max severity Moderate): 1 (2.0) No. of Patients (%)
Treatment-Emergent AE: RESPIRATORY, THORACIC AND MEDIASTINAL DISORDERS, Any Preferred Term ([1]; max severity Moderate): 1 (2.0) No. of Patients (%)
Treatment-Emergent AE: STOMACH DISCOMFORT ([1]; max severity Moderate): 0 (0.0) No. of Patients (%)
Treatment-Emergent AE: Any Adverse Event ([1]; max severity Severe): 3 (6.1) No. of Patients (%)
Treatment-Emergent AE: DRY MOUTH ([1]; max severity Severe): 0 (0.0) No. of Patients (%)
Treatment-Emergent AE: DYSGEUSIA ([1]; max severity Severe): 3 (6.1) No. of Patients (%)
Treatment-Emergent AE: EAR AND LABYRINTH DISORDERS, Any Preferred Term ([1]; max severity Severe): 0 (0.0) No. of Patients (%)
Treatment-Emergent AE: EAR PAIN ([1]; max severity Severe): 0 (0.0) No. of Patients (%)
Treatment-Emergent AE: EPISTAXIS ([1]; max severity Severe): 0 (0.0) No. of Patients (%)
Treatment-Emergent AE: GASTROINTESTINAL DISORDERS, Any Preferred Term ([1]; max severity Severe): 3 (6.1) No. of Patients (%)
Treatment-Emergent AE: HEADACHE ([1]; max severity Severe): 0 (0.0) No. of Patients (%)
Treatment-Emergent AE: MUSCULOSKELETAL AND CONNECTIVE TISSUE DISORDERS, Any Preferred Term ([1]; max severity Severe): 0 (0.0) No. of Patients (%)
Treatment-Emergent AE: MYALGIA ([1]; max severity Severe): 0 (0.0) No. of Patients (%)
Treatment-Emergent AE: NASAL DISCOMFORT ([1]; max severity Severe): 0 (0.0) No. of Patients (%)
Treatment-Emergent AE: NECK PAIN ([1]; max severity Severe): 0 (0.0) No. of Patients (%)
Treatment-Emergent AE: NERVOUS SYSTEM DISORDERS, Any Preferred Term ([1]; max severity Severe): 0 (0.0) No. of Patients (%)
Treatment-Emergent AE: PHARYNGOLARYNGEAL PAIN ([1]; max severity Severe): 0 (0.0) No. of Patients (%)
Treatment-Emergent AE: RESPIRATORY, THORACIC AND MEDIASTINAL DISORDERS, Any Preferred Term ([1]; max severity Severe): 0 (0.0) No. of Patients (%)
Treatment-Emergent AE: STOMACH DISCOMFORT ([1]; max severity Severe): 0 (0.0) No. of Patients (%)
adverse event: bitter taste ([1]; share of treatment group): 8.2%
adverse event: headache ([1]; share of treatment group): 4.1%
RQLQ Change From Baseline in Activity, LS Mean [2]: −1.37
RQLQ Change From Baseline in Activity, Mean [2]: −1.25
RQLQ Change From Baseline in Activity, Median [2]: −1.00
RQLQ Change From Baseline in Emotional, LS Mean [2]: −1.26
RQLQ Change From Baseline in Emotional, Mean [2]: −1.13
RQLQ Change From Baseline in Emotional, Median [2]: −1.00
RQLQ Change From Baseline in Eye Symptoms, LS Mean [2]: −1.64
RQLQ Change From Baseline in Eye Symptoms, Mean [2]: −1.49
RQLQ Change From Baseline in Eye Symptoms, Median [2]: −1.25
RQLQ Change From Baseline in Nasal Symptoms, LS Mean [2]: −1.46
RQLQ Change From Baseline in Nasal Symptoms, Mean [2]: −1.31
RQLQ Change From Baseline in Nasal Symptoms, Median [2]: −1.25
RQLQ Change From Baseline in Non-nose/eye Symptoms, LS Mean [2]: −0.88
RQLQ Change From Baseline in Non-nose/eye Symptoms, Mean [2]: −0.82
RQLQ Change From Baseline in Non-nose/eye Symptoms, Median [2]: −0.86
RQLQ Change From Baseline in Overall Score, LS Mean [2]: −1.21
RQLQ Change From Baseline in Overall Score, Mean [2]: −1.11
RQLQ Change From Baseline in Overall Score, Median [2]: −1.13
RQLQ Change From Baseline in Practical Problems, LS Mean [2]: −1.59
RQLQ Change From Baseline in Practical Problems, Mean [2]: −1.50
RQLQ Change From Baseline in Practical Problems, Median [2]: −1.33
RQLQ Change From Baseline in Sleep, LS Mean [2]: −1.23
RQLQ Change From Baseline in Sleep, Mean [2]: −1.02
RQLQ Change From Baseline in Sleep, Median [2]: −1.00
